From patent publication US20180110777A1, “METHOD FOR REGULATION OF TELOMERE LENGTH” (The Johns Hopkins University, priority 2015, published 2018)

Key:
[1] = system: SL13 cells; assay: Telomere Southern blot after lentiviral overexpression of mTR and mTERT; type: cell-based, mouse; conditions: SL13 cells transduced with lentivirus expressing mTR and mTERT; day 6
[2] = system: SL13 cells; assay: ADDIT assay (addition of de novo initiated telomeres; modified STELA with PacBio sequencing or Southern blot); type: cell-based, mouse
Description: To critically access the role of ATM, as well as other potential telomere length regulators, an assay was developed that measures telomere repeat addition in cells over 48 hr. CAST/EiJ mouse fibroblast cell line was engineered to (SL13) contain a conditional mTR allele and a modified chromosome 4 (chr4) with an internal 480 bp telomere ‘seed’ sequence followed by a unique I-Sce1 endonuclease cut site (FIG. 5 and see Experimental Procedures). The internal telomere ‘seed’ sequence can be conditionally exposed by I-Sce1 endonuclease cleavage (FIG. 1A) and then be elongated by telomerase in a manner similar to de novo telomere addition shown to occur in yeast (Diede and Gottschling, 1999, Cell 99, 723-733).
To better detect the telomere elongation, the single telomere length analysis (STELA) assay was modified (Baird et al., 2004, Hum Mol Genet 13, 1515-1524), to measure telomere length at the in vivo cut chr4. The linker, ‘telorette’, was ligated to the telomere and PCR amplified the telomere using the ‘teltail’ primer and an internal primer in the hygromycin resistance (HYG) sequence on the engineered chromosome (FIG. 1B). To determine the un-extended cut chromosome length in vitro, a different linker was designed, ‘IScerette’, which anneals to the 4-nt 3′ overhang created by the I-Sce1 endonuclease (FIG. 1B). PCR using the forward primers, F1 or F2, and the teltail generated products of predicted size on a Southern blot (data not shown).
To further verify telomere addition had occurred, the PCR products were sequenced with Pacific Biosciences (PacBio®) sequencing. PacBio® produces long sequence reads that allowed us to determine telomere length. While sequencing errors, predominantly point insertions and deletions, occurred as expected, the telomere repeats were easily recognizable. To assure products were full length, the PacBio® reads were filtered to examine only those that had the unique HYG sequence followed by the seed telomere repeat sequence and also had the ‘teltail’ primer sequence (FIG. 6). […] The I-Sce1 site is shown boxed (FIG. 1C). Three regions of variant telomere repeats were noted, evident as darker stripes in the aligned reads, that were present in the original SL13 clone, and served as useful sequence reference points (FIG. 1C). If there were degradation past these variants and then new TTAGGG (SEQ ID NO: 100) repeat synthesis in vivo, these landmarks would be removed.
The sequence length distribution in the ADDIT assay represents telomere elongation, incomplete telomere replication and in vivo end resection (as well as PacBio® sequencing errors).
Cell lines were grown in DMEM (Gibco) supplemented with 1% Penicillin/Streptomycin/Glutamine (PSG) and 10% heat inactivated FBS (Invitrogen). SL13 cells were grown in DMEM (Gibco) supplemented with 1% PSG and 10% Tet system approved FBS (Clontech, #631107). Cells were treated with ATM inhibitor KU55933 (R&D Systems, #3544), ATR inhibitor VE821 (Selleckchem, #S8007) or PARP1 inhibitor Olaparib (Selleckchem, #1060) at indicated concentrations or DMSO as a control. For the ADDIT assay, SL13 cells were treated with final concentration 2 μg/ml of doxycycline for typically 48 hr or as indicated.
The original STELA protocol used for human cells (Baird et al., 2004, Hum Mol Genet 13, 1515-1524) was modified to measure telomere lengths on the cut end of chr4 in SL13 cells. Briefly, genomic DNA was extracted using Puregene Core Kit A™ (Qiagen). 4 μg of genomic DNA was digested with Sph1 (NEB) and later diluted to 10 ng/μl in water. For the in vitro IScerette sample, genomic DNA was digested with SphI and I-SceI (NEB) prior to ligation. The ligation was carried out at 35° C. for at least 12 hr in a volume of 10 μl containing 10 ng of digested genomic DNA, 0.9 μM of telorette linkers or IScerette linker and 0.5 U of T4 DNA ligase (NEB) in 1×T4 ligation buffer. […]

## CS(=O)(=O)c1ccc(-c2cnc(N)c(C(=O)Nc3ccccc3)n2)cc1 [VE821]
[1]
  telomere elongation on overexpression of telomerase (Southern blot): subtle but reproducible decreased elongation at day 6

## CN[C@H]1CCc2cc(OC)c(OC)c(OC)c2-c2ccc(OC)c(=O)cc21 [colcemid]
[2]; PacBio sequencing of STELA products, compared to controls
  de novo telomere addition / telomere elongation in ADDIT assay (in words): No significant difference of de novo elongation

## CN1CC[C@H](c2c(O)cc(O)c3c(=O)cc(-c4ccccc4Cl)oc23)[C@H](O)C1 [flavopiridol]
[2]; 400 nM flavopiridol, 48 hrs, DMSO control 24%
  percentage of reads with de novo telomere addition: less than 2%
[2]; flavopiridol-treated sample
  elongation in Southern blot analysis of STELA PCR products: minimal elongation beyond the chr4 I-Sce1-induced cut base line
